In patent US20230339854A1, “Negative Allosteric Modulation of GluN3-Containing N-Methyl-D-Aspartate Receptors” (Emory University, priority 2020, published 2023):
Entries after “also recorded” stand apart in the source; their conditions may differ. Where two headings read alike, the source gives them in different places. Each block holds one compound with its values, some of them ahead of it.

Experiments:
[1] = molecular target: T1, rat GluN1-4a/GluN3B receptors (Rattus norvegicus, UniProt Q8VHN2); test: Two-electrode voltage-clamp recordings of GluN1-4a/GluN3B receptors in the presence of CGP-78608 (Xenopus oocytes); format: cell-based; conditions: @ 10 μM drug; 0.5 μM CGP-78608
T1 construct: Human GluN3A (NP_597702.2) and rat GluN3B (NP_579842.2) were synthesized and subcloned into SP6 plasmids; expressed in transfected cells; host or cells: Xenopus laevis oocytes, cRNA injection
Description: (§1) cDNA encoding human wild-type (WT) GluN1-1a (GenBank accession numbers NP_015566, hereafter GluN1) and rat GluN1-1a (NP_058706.1) were synthesized and subcloned into pGEMHE plasmid; some experiments used the rat splice variant GluN1-4a (NP_001257531.1). Human GluN3A (NP_597702.2) and rat GluN3B (NP_579842.2) were synthesized and subcloned into SP6 plasmids. For most experiments, human GluN1 was co-expressed with human GluN3A, except for mutagenesis experiments where rat GluN1 was co-expressed with human GluN3A. Rat GluN1-4a was always expressed with rat GluN3B.
(§2) Defolliculated Xenopus laevis oocytes (stage V-VI) were obtained from Ecocyte BioScience (Austin, Texas), or prepared from commercially available Xenopus ovaries (Xenopus 1, Dexter, MI) as previously described (Hansen, et al., Mol. Pharmacol., 2013). A Drummond Nanoject II (Broomall, PA) was used to inject oocytes with cRNAs encoding GluN1 and GluN3 at a 1:3 ratio in RNase-free water. The cRNA was diluted as needed to give responses with amplitudes ranging between 200-2000 nA (0.2-10 ng total cRNA). Following cRNA injection, the oocytes were stored at 15-19° C. in Barth's solution that contained (in mM) 88 NaCl, 2.4 NaHCO3, 1 KCl, 0.33 Ca(NO3)2, 0.41 CaCl2), 0.82 MgSO4, and 5 Tris-HCl (pH 7.4 with NaOH), supplemented with 1 μg/ml streptomycin (Invitrogen, Carlsbad, CA) and 100 μg/ml gentamicin (Fisher Scientific, Pittsburgh, PA). Recordings were performed 2-5 days following cRNA microinjection at room temperature (23° C.) using a two-electrode voltage-clamp amplifier (OC725, Warner Instrument, Hamilton, CT). The signal was low-pass filtered at 10-20 Hz (4-pole, −3 dB Bessel) and digitized at the Nyquist rate using PCI-6025E or USB-6212 BNC data acquisition boards (National Instruments, Austin, TX) using EasyOocyte (http://www.easyoocyte.io/). Oocytes were placed in a custom-made chamber and continuously perfused (2.5 ml/min) with oocyte recording solution containing (in mM) 90 NaCl, 1 KCl, 10 HEPES, 0.5-1.0 BaCl2, and 0.01 EDTA (pH 7.4 with NaOH). Solutions were applied by gravity, and solution exchange was controlled through a rotary valve (Hamilton, Reno, NV). Recording electrodes were filled with 0.3-3.0 M KCl, and current responses were recorded at a holding potential of −40 mV.
(§3) Response (%)=(100−minimum)/(1+([concentration]/IC50)^nH)+minimum (2) • where nH is the Hill slope, IC50 is the concentration that produces a half-maximal effect, and minimum is the degree of residual inhibition at a saturating concentration of the negative allosteric modulator.
(§4) Selected compounds were also screened in the same assay as EU1180-438 to determine their effect on GluN3B.

[2] = molecular target: T2, human GluN1^FA,TL/GluN3A receptors (Homo sapiens, UniProt Q8TCU5); test: Two-electrode voltage-clamp recordings of GluN1^FA,TL/GluN3A receptors in Xenopus oocytes; format: cell-based; conditions: for Slope: concentration-response curve; for Slope / minimum: 1000 μM glycine; for % Inhibition GluN1^FATL/GluN3A / Max Inhibition: fitted maximum at saturating test compound; for minimum: residual response at saturating concentration; for hGluN1^FA,TL/hGluN3A (100 × Idrug/Icontrol): @ 10 μM; for Max Inhibition: 100 × (1 − Idrug/Icontrol); for remaining activity at 30 µM: read-out: hGluN1^FA,TL/hGluN3A (100 × Idrug/Icontrol at 30 μM drug)
T2 construct: Human GluN3A (NP_597702.2) and rat GluN3B (NP_579842.2) were synthesized and subcloned into SP6 plasmids; expressed in transfected cells; host or cells: Xenopus laevis oocytes, cRNA injection (GluN1:GluN3 1:3)
Summary of the method: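 Human GluN1 with human GluN3A cRNA (1:3) in oocytes, recorded 2-5 days post-injection at 23° C, holding −40 mV, in Ba2+-containing recording solution pH 7.4. Compounds screened at 10 or 30 μM; those inhibiting >20% given concentration-response fits for IC50, Hill slope and residual inhibition.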

GluN1/GluN3 receptors = conditions: hydrochloride; cited from earlier work
[3] = system: GluN1/GluN2 NMDA receptors (GluN2A, GluN2B, GluN2C, GluN2D); test: Recombinant GluN1/GluN2 NMDA receptors in Xenopus oocytes (selectivity); format: cell-based, rat
[4] = molecular target: T3, rat GluN1-4a/GluN3B receptors (Rattus norvegicus, UniProt P35439+Q8VHN2); test: Two-electrode voltage-clamp recordings of GluN1-4a/GluN3B receptors in the presence of CGP-78608 (Xenopus oocytes); format: cell-based; conditions: 0.5 μM CGP-78608
T3 construct: Human GluN3A (NP_597702.2) and rat GluN3B (NP_579842.2) were synthesized and subcloned into SP6 plasmids; expressed in transfected cells; host or cells: Xenopus laevis oocytes, cRNA injection
Description: as §1, §2, §3, §4

GluN1 = GluN1 (Homo sapiens, UniProt Q05586); conditions: read-out: EC50 (glycine binding GluN1); cited from earlier work
[5] = pH 7.4, holding potential −40 mV, read-out: EC50, (95% CI) GluN1^FATL/GluN3A
[6] = responses activated by 1000 μM glycine, pH 7.4, read-out: IC50
[7] = hGluN1^FA,TL/hGluN3A, read-out: IC50
[8] = hGluN1^FA,TL/hGluN3A, read-out: IC50 (95% CI) GluN3A

T3 sequence (Q8VHN2 25-1002, other chains not shown): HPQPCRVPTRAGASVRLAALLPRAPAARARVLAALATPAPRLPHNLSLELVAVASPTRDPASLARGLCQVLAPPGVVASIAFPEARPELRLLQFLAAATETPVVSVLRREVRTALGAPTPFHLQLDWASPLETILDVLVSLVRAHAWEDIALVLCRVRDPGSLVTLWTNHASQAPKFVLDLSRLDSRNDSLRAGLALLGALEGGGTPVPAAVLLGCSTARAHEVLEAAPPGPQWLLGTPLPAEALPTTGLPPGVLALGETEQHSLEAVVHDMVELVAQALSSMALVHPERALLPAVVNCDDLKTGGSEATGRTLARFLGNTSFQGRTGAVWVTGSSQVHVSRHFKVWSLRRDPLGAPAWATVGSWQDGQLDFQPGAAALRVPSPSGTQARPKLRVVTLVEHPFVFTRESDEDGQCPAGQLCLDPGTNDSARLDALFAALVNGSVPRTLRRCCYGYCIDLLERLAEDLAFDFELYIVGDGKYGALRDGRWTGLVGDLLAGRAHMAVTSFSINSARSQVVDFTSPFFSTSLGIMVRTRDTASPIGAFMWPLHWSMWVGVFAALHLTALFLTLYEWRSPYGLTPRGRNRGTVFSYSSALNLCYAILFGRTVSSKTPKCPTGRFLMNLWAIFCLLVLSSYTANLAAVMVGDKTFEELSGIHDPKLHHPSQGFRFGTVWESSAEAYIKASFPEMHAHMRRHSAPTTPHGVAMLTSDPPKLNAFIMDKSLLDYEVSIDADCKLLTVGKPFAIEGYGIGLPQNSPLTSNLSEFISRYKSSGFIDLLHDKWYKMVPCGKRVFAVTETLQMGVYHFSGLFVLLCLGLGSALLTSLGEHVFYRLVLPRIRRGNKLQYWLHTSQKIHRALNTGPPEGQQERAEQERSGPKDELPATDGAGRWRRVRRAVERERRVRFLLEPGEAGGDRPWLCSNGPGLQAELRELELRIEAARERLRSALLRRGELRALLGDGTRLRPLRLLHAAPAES
T1 sequence (Q8VHN2 25-1002, other chains not shown): as above

SMILES: C[C@@H](NCc1cc(Br)cc2[nH]c(=O)c(=O)[nH]c12)P(=O)(O)O.Cl [CGP-78608, [(1S)-1-[[(7-bromo-1,2,3,4-tetrahydro-2,3-dioxo-5-quinoxalinyl)methyl]amino]ethyl] phosphonic acid hydrochloride]
effect on activation of GluN1/GluN3 receptors (GluN1/GluN3 receptors): dramatically enhance activation of GluN1/GluN3 receptors; also recorded: strongly enhance GluN1/GluN3A current responses

SMILES: COc1ccc(OCC(c2ccc(OC(C)C)cc2)N2Cc3ccccc3C2=O)cc1 (stereo not drawn) [EU1180-481, 2-(1-(4-isopropoxyphenyl)-2-(4-methoxyphenoxy)ethyl)isoindolin-1-one]
activity toward recombinant GluN1/GluN2 NMDA receptors (GluN2A-D) ([3]; 30 μM): no detectable activity | hGluN1^FA,TL/hGluN3A (100 × Idrug/Icontrol) [2]: 57% | Max Inhibition [2]: 54% | IC50 [2, 7]: 3.12 µM | IC50 [2, 8]: 3.12 µM

SMILES: COc1ccc(OCC(c2ccccc2)N2Cc3ccccc3C2=O)cc1 (stereo not drawn) [EU1180-487, 2-(2-(4-methoxyphenoxy)-1-phenyl-ethyl)isoindolin-1-one]
IC50 [4]: 6.49 µM | rat GluN1-4a/GluN3B + CGP (100 × Idrug/Icontrol) [1]: 42% @ 10 μM drug | activity toward recombinant GluN1/GluN2 NMDA receptors (GluN2A-D) ([3]; 30 μM): no detectable activity | Max Inhibition [2]: 78% | IC50 [2, 8]: 10.8 µM

SMILES: COc1ccc(OCC(c2ccc(OC)c(OC)c2)N2Cc3ccccc3C2=O)cc1 (stereo not drawn) [EU1180-494, 2-(1-(3,4-dimethoxyphenyl)-2-(4-methoxyphenoxy)ethyl)isoindolin-1-one]
activity toward recombinant GluN1/GluN2 NMDA receptors (GluN2A-D) ([3]; 30 μM): no detectable activity | Max Inhibition [2]: 3%

SMILES: CCOc1ccc(OCC(c2ccc(OC(C)C)cc2)N2Cc3ccccc3C2=O)cc1 (stereo not drawn) [EU1180-499, 2-(2-(4-ethoxyphenoxy)-1-(4-isopropoxyphenyl)ethyl)isoindolin-1-one]
activity toward recombinant GluN1/GluN2 NMDA receptors (GluN2A-D) [3]: None of them showed any activity | hGluN1^FA,TL/hGluN3A (100 × Idrug/Icontrol) [2]: 67% | IC50 [2, 7]: 2.1 µM

SMILES: Cc1cccc(OCC(c2ccc(OC(C)C)cc2)N2Cc3ccccc3C2=O)n1 (stereo not drawn) [EU1180-508, 2-(1-(4-isopropoxyphenyl)-2-((6-methylpyridin-2-yl)oxy)ethyl)isoindolin-1-one]
activity toward recombinant GluN1/GluN2 NMDA receptors (GluN2A-D) [3]: None of them showed any activity | hGluN1^FA,TL/hGluN3A (100 × Idrug/Icontrol) [2]: 28% | IC50 [2, 7]: 3.93 µM

SMILES: Cc1cccc(OCC(c2ccc(OC(C)C)cc2)N2Cc3ccc(Cl)cc3C2=O)n1 (stereo not drawn) [EU1180-509, 6-chloro-2-(1-(4-isopropoxyphenyl)-2-((6-methylpyridin-2-yl)oxy)ethyl)isoindolin-1-one]
activity toward recombinant GluN1/GluN2 NMDA receptors (GluN2A-D) [3]: None of them showed any activity | hGluN1^FA,TL/hGluN3A (100 × Idrug/Icontrol) [2]: 81%

SMILES: Cc1cccc(OCC(c2ccc(OC(C)C)cc2)N2Cc3cc(Cl)ccc3C2=O)n1 (stereo not drawn) [EU1180-510, 5-chloro-2-(1-(4-isopropoxyphenyl)-2-((6-methylpyridin-2-yl)oxy)ethyl)isoindolin-1-one]
activity toward recombinant GluN1/GluN2 NMDA receptors (GluN2A-D) [3]: None of them showed any activity | remaining activity at 30 µM [2]: 94%

SMILES: Cc1cccc(OCC(c2ccc(OC(C)C)cc2)N2Cc3ccc(C(F)(F)F)cc3C2=O)n1 (stereo not drawn) [EU1180-511]
activity toward recombinant GluN1/GluN2 NMDA receptors (GluN2A-D) [3]: None of them showed any activity | remaining activity at 30 µM [2]: 94%

SMILES: NCC(=O)O [glycine]
EC50 (GluN1): 0.1 to 1 µM

Next, values leading:

rat GluN1-4a/GluN3B + CGP (100 × Idrug/Icontrol) [1]: 28% @ 10 μM drug | Slope [2]: 1.2 | % Inhibition GluN1^FATL/GluN3A ([2]; pH 7.4): 96%^a, (n = 22) | IC50 [2, 5]: 7.1 µM | minimum [2]: 4% | IC50 [2, 6]: 7.1 µM
SMILES: COc1ccc(OCC(c2ccc(OC)cc2)N2Cc3ccccc3C2=O)cc1 (single isomer, unassigned; (+)) [(+) EU1180-438, 2-(2-(4-methoxyphenoxy)-1-(4-methoxyphenyl)ethyl)isoindolin-1-one]

rat GluN1-4a/GluN3B + CGP (100 × Idrug/Icontrol) [1]: 70% @ 10 μM drug | Slope [2]: 1.4 | % Inhibition GluN1^FATL/GluN3A ([2]; pH 7.4): 84%^a, (n = 20) | IC50 [2, 5]: 13 µM | minimum [2]: 16% | IC50 [2, 6]: 13 µM
SMILES: COc1ccc(OCC(c2ccc(OC)cc2)N2Cc3ccccc3C2=O)cc1 (single isomer, unassigned; (-)) [(−) EU1180-438, 2-(2-(4-methoxyphenoxy)-1-(4-methoxyphenyl)ethyl)isoindolin-1-one]

IC50 [4]: 3.43 µM | rat GluN1-4a/GluN3B + CGP (100 × Idrug/Icontrol) [1]: 38% @ 10 μM drug | activity toward recombinant GluN1/GluN2 NMDA receptors (GluN2A-D) ([3]; 30 μM): no detectable activity | Max Inhibition [2]: 88% | IC50 [2, 8]: 3.29 µM
SMILES: COc1ccc(OCC(c2ccccc2)N2CCc3ccccc3C2=O)cc1 (stereo not drawn) [EU1180-488, 2-(2-(4-methoxyphenoxy)-1-phenylethyl)-3,4-dihydroisoquinolin-1(2H)-one]

IC50 [4]: 3.57 µM | rat GluN1-4a/GluN3B + CGP (100 × Idrug/Icontrol) [1]: 31% @ 10 μM drug | activity toward recombinant GluN1/GluN2 NMDA receptors (GluN2A-D) ([3]; 30 μM): no detectable activity | Max Inhibition [2]: 44% | IC50 [2, 8]: 10.8 µM
SMILES: COc1ccc(OCC(c2ccc(OC)cc2)N2CCc3ccccc3C2=O)cc1 (stereo not drawn) [EU1180-489, 2-(2-(4-methoxyphenoxy)-1-(4-methoxyphenyl)ethyl)-3,4-dihydroisoquinolin-1(2H)-one]
